In patent publication US20230348561A1, “DOMINANT NEGATIVE TGFBETA RECEPTOR POLYPEPTIDES, CD8 POLYPEPTIDES, CELLS, COMPOSITIONS, AND METHODS OF USING THEREOF” (IMMATICS US, INC., priority 2022, published 2023):

B1: dnTGFβRIIvar2: dominant negative TGFβRII variant 2, SEQ ID NO: 307, encoded by SEQ ID NO: 308; lentiviral vector SEQ ID NO: 313 (protein)
chain: MGRGLLRGLWPLHIVLWTRIASTIPPHVQKSVNNDMIVTDNNGAVKFPQLCKFCDVRFSTCDNQKSCMSNCSITSICEKPQEVCVAVWRKNDENITLETVCHDPKLPYHDFILEDAASPKCIMKEKKKPGETFFMCSCSSDECNDNIIFSEEYNTSNPDLLLVIFQVTGISLLPPLGVAISVIIIFYCYRVNRQQKLSS
modifications: Dominant Negative TGFbetaRII var2 Amino Acid Sequence
B2: dnTGFβRIIvar1: dominant negative TGFβRII variant 1, SEQ ID NO: 305, encoded by SEQ ID NO: 306; lentiviral vector SEQ ID NO: 312 (protein)
chain: MGRGLLRGLWPLHIVLWTRIASTIPPHVQKSDVEMEAQKDEIICPSCNRTAHPLRHINNDMIVTDNNGAVKFPQLCKFCDVRFSTCDNQKSCMSNCSITSICEKPQEVCVAVWRKNDENITLETVCHDPKLPYHDFILEDAASPKCIMKEKKKPGETFFMCSCSSDECNDNIIFSEEYNTSNPDLLLVIFQVTGISLLPPLGVAISVIIIFYCYRVNRQQKLSS
modifications: Dominant Negative TGFbetaRII var1 Amino Acid Sequence

What was measured:
effector T cells = assay: CellTrace proliferation assay of effector T cells co-cultured with UACC257; assay type: cell-based, human; settings: TCR-only effector cells, E:T 5:1; TGF-β1 2-128 ng/mL; GAL 5 μM; 3 days
Experimental: Transduced cells from one donor (prepared as in Example 17) were thawed, washed, and resuspended in TexMACS medium supplemented with 5% by volume human AB serum (“Complete TexMACS”). Benzonase nuclease was added to a concentration of 50 U/mL and the cells were incubated (rested) overnight in tissue culture-treated flasks at 37° C.
UACC257 tumor cells were harvested using 0.05% trypsin, washed, and counted. Red fluorescent protein (RFP)-labeled tumor cells were plated at 5,000 tumor cells per well in 100 μL in triplicate in a 96-well plate in Complete TexMACS. Plates were placed in an incubator at 37° C.
On the day of co-culture, effector T cells were counted, washed, and resuspended in PBS containing a CellTrace Violet proliferation dye at 1:1000 dilution (1 μL dye per mL PBS) and incubated for 20 minutes at 37° C. […]
Labeled effector T cells were then washed, counted, and resuspended in Complete TexMACS and added in 1 mL per well to previously prepared tumor targets for a total of 2 mL per well at an effector:target (E:T) ratio of 5:1. […]
UACC257 tumor cells were harvested using 0.05% trypsin, washed, and counted. […]
On the day of co-culture, cells from two donors prepared and sorted as in Example 19 were counted, washed, and resuspended in PBS containing a CellTrace Violet proliferation dye at 1:1000 dilution (1 μL dye per mL PBS) and incubated for 20 minutes at 37° C. […]

UACC257-RFP tumor cells = assay: Tumor death assays with TGF-β1/galunisertib and serial tumor challenges (IncuCyte); assay type: cell-based; settings: TCR-only effector cells, E:T 5:1; TGF-β1 8 or 128 ng/mL; GAL 5 μM
Experimental: Cells prepared as in Example 17 were thawed, washed, and resuspended in TexMACS medium supplemented with 5% by volume human AB serum (“Complete TexMACS”). Benzonase nuclease was added to a concentration of 50 U/mL and the cells were incubated (rested) overnight in tissue culture-treated flasks at 37° C.
UACC257 tumor cells were harvested using 0.05% trypsin, washed, and counted. Red fluorescent protein (RFP)-labeled tumor cells (“UACC257-RFP”) were plated at 5,000 to 10,000 per well in a flat-bottomed 96-well plate in 100 μL of Complete TexMACS. Plates were placed in an incubator at 37° C. UACC257 cells express high levels of the antigen PRAME (preferentially expressed antigen in melanoma).
Transduced cells (effector) and tumor cells (target) were co-cultured in 96 well tissue culture plates. Effector/target co-culture plates were placed into an IncuCyte ZOOM imager at 37° C. and 5% CO2 and imaged every 2 hours for the duration of 3 to 12 days. Data was exported from the IncuCyte ZOOM software into Microsoft Excel and GraphPad Prism for further analysis. Fold tumor growth (RFP+ cell count) was normalized to 0 hr timepoint.
TCR-only transduced cells from one donor (prepared as in Example 17) were co-cultured with UACC257 tumor cells, as described in Example 20, at an effector:target (E:T) ratio of 5:1. […]

pSMAD2/3 = assay: Phospho-SMAD intracellular staining assay; assay type: cell-based, human; settings: 5 ng/mL TGFβ; vs non-transduced cells
Experimental: SMAD is a signal transducer in the TGFβ signaling pathway. SMAD is phosphorylated in response to binding of TGFβ to its receptor and facilitates expression of TGFβ-responsive genes.
Non-transduced cells and cells expressing dnTGFβvar1 or dnTGFβvar2 (prepared as in Example 17) were thawed and washed in TexMACS medium supplemented with 5% by volume human AB serum (“Complete TexMACS”). They were subsequently resuspended in unsupplemented TexMACS to rest under serum starvation overnight at 37° C. After overnight rest, effector cells were counted and the concentration was adjusted as necessary and 100 μL aliquots were added into a flat-bottomed 96-well tissue culture plate. To avoid stimulating SMAD phosphorylation from the manipulation of cells during counting/plating, cells were further rested about 2 hours in serum-free TexMACS at 37° C.
After 2 hours, 50 μL of a 3× solution of TGF-β1 (15 ng/mL) and/or GAL (15 μM) was added to the plated effector cells for final 1× concentrations of 5 ng/mL TGF-β1 and/or 5 μM GAL, respectively. For untreated cells, 50 μL of untreated medium was added. […]
Following permeabilization, cells were washed twice with Flow Buffer (PBS, 1% FBS, 0.1% sodium azide). […] Cytometry data files were analyzed in FlowJo. pSMAD+ percentages were reported as a proportion of all live lymphocytes. […]

Row | Molecule | Division Index / proliferation of effector T cells (effector T cells) | tumor fold growth of UACC257-RFP cells (UACC257-RFP tumor cells) | percentage of all lymphocytes positive for pSMAD (pSMAD2/3)
1 | Cc1cccc(-c2nn3c(c2-c2ccnc4ccc(C(N)=O)cc24)CCC3)n1 [GAL, Galunisertib] | rescued | rescues or enhances ability of effector cells to kill tumor cells | 
2 | TGF-β1: exogenous cytokine added to co-cultures | suppresses proliferation of effector T cells | reduced the anti-tumor cytotoxicity of the effector cells | 
3 | B1 |  |  | reduced phosphorylated SMAD
4 | B2 |  |  | reduced phosphorylated SMAD
